This assay deals with BiP NBD (Homo sapiens, UniProt P11021). As to the kind of experiment: Global kinetic fit (MCMC) of four NMR data sets (E1+E2, E1 only, E2 only, no recycling): functional cycle kinetic parameters. The assay is classed as biochemical. More on the design: His6 (N, cleaved yes); made in house; host or cells: E. coli BL21-(DE3)-Lemo, pET28a vector. An excerpt: It comprises 5 different states that are connected by […] reaction equations of first and second order. We consider ATP hydrolysis an irreversible reaction without backreaction. The other pathways are reversible dissociation/association reactions, arbitrarily labeled 1–5. The microscopic equations (elementary reactions) for these 11 reactions are given by:1 NBD^ATPkcat→NBD^ADP⋅Pi 2 NBD^ATPkoff1⇌kon1NBD^apo+ATP 3 NBD^ADPkoff2⇌kon2NBD^apo+ADP 4 NBD^Pikoff3⇌kon3NBD^apo+Pi 5 NBD^ADP⋅Pikoff4⇌kon4NBD^ADP+Pi 6 NBD^ADP⋅Pikoff5⇌kon5NBD^Pi+ADP With the forward and backward kinetic rate constants connected by thermodynamic equilibrium dissociation constants given by7 koffi/koni=KDifori=1,…,5 For each of the 5 states, a differential equation describing the conservation of mass can be derived:8 d/dtNBD^apo=+koff1NBD^ATP+koff2NBD^ADP+koff3NBD^Pi−kon1NBD^apoATP−kon2NBD^apoADP−kon3NBD^apoPi 9 d/dt[NBD^ATP]=+kon1NBD^apoATP−koff1NBD^ATP−kcatNBD^ATP 10 d/dtNBD^ADP⋅Pi=+kcatNBD^ATP+kon4NBD^ADPPi+kon5NBD^PiADP−koff4NBD^ADP⋅Pi−koff5NBD^ADP⋅Pi 11 d/dtNBD^ADP=+koff4NBD^ADP⋅Pi+kon2NBD^apoADP−koff2NBD^ADP−kon4NBD^ADPPi 12 d/dtNBD^Pi=+koff5NBD^ADP⋅Pi+kon3NBD^apoPi−koff3NBD^Pi−kon5NBD^PiADP Furthermore, we have the total amount13 NBD^apo+NBD^ATP+NBD^ADP+NBD^ADP⋅Pi+NBD^Pi=NBD0 These equations can be used for numerical fitting of steady-state and non-steady-state experimental data.
Sequence of BiP NBD (P11021 19-406): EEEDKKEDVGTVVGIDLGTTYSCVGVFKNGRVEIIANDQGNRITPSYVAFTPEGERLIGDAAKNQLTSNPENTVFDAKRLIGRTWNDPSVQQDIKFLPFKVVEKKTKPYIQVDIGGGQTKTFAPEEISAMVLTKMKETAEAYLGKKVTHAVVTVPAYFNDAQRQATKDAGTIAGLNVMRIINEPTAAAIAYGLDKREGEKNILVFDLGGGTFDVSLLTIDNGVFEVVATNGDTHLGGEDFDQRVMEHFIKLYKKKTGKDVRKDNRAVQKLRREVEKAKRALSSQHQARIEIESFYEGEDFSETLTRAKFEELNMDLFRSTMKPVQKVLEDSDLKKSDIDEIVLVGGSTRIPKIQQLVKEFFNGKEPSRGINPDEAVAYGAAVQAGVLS
The experimental data of the BiP NBD in-cyclo experiments were fitted using standard reaction kinetics. Free variables were the kon and koff rates for the five reversible reaction and the catalytic rate constant (kcat) for the irreversible ATP hydrolysis step (See theory section). The initial values for kcat , koff2 , koff4 and koff5 were set to the value determined experimentally with in-cyclo experiment. The initial value for koff3 was taken from the EXSY experiment and the initial range for koff1 and KD1 were taken from the literature. […] The prior distributions were defined based on the average state occupancy resolved from the in-cyclo experiment: tNBD·ADP, tNBD, tNBD·ADP·Pi and tNBD·Pi. Numerical integration of the corresponding differential equations for the reaction scheme (described in Fig. 2a) was performed using a custom Python module (Kinetic).
To fully determine all kinetic parameters, the data fitting procedure was conducted as a global fit of four independent experimental datasets: (i) the in-cyclo experiment with ATP regeneration and phosphate removal, (ii) ATP regeneration only, (iii) single batch experiments starting from pure ATP with the phosphate removal system, and (iv) single batch experiments starting from pure ATP.
Fitting of the functional cycle kinetic parameters. a-d, Global fit of the experimental data presented in the manuscript E1 +E2 (a), E1 (b), E2 (c), no recycling system (d). Data points are shown as circles NBD·ADP (blue), NBD·ADP·PI (dark blue) and NBD·ATP (red) (left) and pyruvate (grey), glucose-1-P (lavender), ATP (red) and ADP (blue) (right). The fit of the data is shown as lines in the same color as the data points. Data points and standard deviation for three independent experiments. e, Numerical stability of the global fitting of the experimental data.

Where [1] appears, read: Supplementary Fig 10a, time 5 min.
[2] abbreviates: Supplementary Fig 10a, time 11 min.
Setting [3] is: Supplementary Fig 10a, time 17 min.
Where [4] appears, read: Supplementary Fig 10a, time 23 min.
The mark [5] stands for this setting: Supplementary Fig 10a, time 29 min.
Where [6] appears, read: Supplementary Fig 10a, time 35 min.
The mark [7] stands for this setting: Supplementary Fig 10a, time 41 min.
The mark [8] stands for this setting: Supplementary Fig 10a, time 47 min.
The mark [9] stands for this setting: Supplementary Fig 10a, time 53 min.
Setting [10] is: Supplementary Fig 10a, time 59 min.
The mark [11] stands for this setting: Supplementary Fig 10a, time 65 min.
Where [12] appears, read: Supplementary Fig 10a, time 71 min.
Setting [13] is: Supplementary Fig 10b, time 10 min.
Where [14] appears, read: Supplementary Fig 10b, time 16 min.
[15] abbreviates: Supplementary Fig 10b, time 22 min.
[16] abbreviates: Supplementary Fig 10b, time 28 min.
Setting [17] is: Supplementary Fig 10b, time 34 min.
Setting [18] is: Supplementary Fig 10b, time 40 min.
Setting [19] is: Supplementary Fig 10b, time 46 min.
Where [20] appears, read: Supplementary Fig 10b, time 52 min.
Where [21] appears, read: Supplementary Fig 10b, time 58 min.
[22] abbreviates: Supplementary Fig 10b, time 64 min.
Where [23] appears, read: Supplementary Fig 10b, time 70 min.

Results on three compounds are retold here after article PMC12126525, “Mechanism of ATP hydrolysis in the Hsp70 BiP nucleotide-binding domain” (Nature Communications, 2025).

Each structure is given as a SMILES string.

Consider `O=P(O)(O)O[C@H]1O[C@H](CO)[C@@H](O)[C@H](O)[C@H]1O` [glucose-1-p], for which the species runs as follows: under setting [1], 1073 µM; under setting [2], 2085 µM; under setting [3], 2925 µM; under setting [4], 4009 µM; under setting [5], 4805 µM; under setting [6], 5531 µM. Also, the species by setting is: under setting [7], 6432 µM; under setting [8], 7245 µM; under setting [9], 8072 µM; under setting [10], 8987 µM; under setting [11], 9725 µM; under setting [12], 10723 µM. For the same compound, the species is, setting by setting: (Supplementary Fig 10c, time 5 min) 690 µM; (Supplementary Fig 10c, time 11 min) 1328 µM; (Supplementary Fig 10c, time 17 min) 1777 µM; (Supplementary Fig 10c, time 23 min) 2409 µM; (Supplementary Fig 10c, time 29 min) 2838 µM; (Supplementary Fig 10c, time 35 min) 3243 µM. Further, the species worked out at 3518 µM (Supplementary Fig 10c, time 41 min); 3730 µM (Supplementary Fig 10c, time 47 min); 3950 µM (Supplementary Fig 10c, time 53 min).
Consider `CC(=O)C(=O)O` [Pyruvate], for which the species is 841 µM under setting [1]; 1872 µM under setting [2]; 3013 µM under setting [3]; 4002 µM under setting [4]; 4950 µM under setting [5]; 5935 µM under setting [6]. The species is, setting by setting: under setting [7], 6850 µM; under setting [8], 7775 µM; under setting [9], 8621 µM; under setting [10], 9455 µM; under setting [11], 10281 µM; under setting [12], 11083 µM. Also, the species runs as follows: under setting [13], 1011 µM; under setting [14], 1602 µM; under setting [15], 2255 µM; under setting [16], 2820 µM; under setting [17], 3384 µM; under setting [18], 3735 µM. Besides, the species was determined as 4207 µM under setting [19]; 4544 µM under setting [20]; 4962 µM under setting [21]; 5335 µM under setting [22]; 5727 µM under setting [23].
The compound `C=C(OP(=O)(O)O)C(=O)O` [PEP] gave a species under setting [1] of 23927 µM; a species under setting [2] of 22915 µM; a species under setting [3] of 22075 µM; a species under setting [4] of 20991 µM; a species under setting [5] of 20195 µM; a species under setting [6] of 19469 µM. For the same compound, the species reads like this: under setting [7], 18568 µM; under setting [8], 17755 µM; under setting [9], 16928 µM; under setting [10], 16013 µM; under setting [11], 15275 µM; under setting [12], 14277 µM. This compound also had a species under setting [13] of 9179 µM; a species under setting [14] of 8398 µM; a species under setting [15] of 7745 µM; a species under setting [16] of 7180 µM; a species under setting [17] of 6616 µM; a species under setting [18] of 6265 µM. The species reads like this: under setting [19], 5793 µM; under setting [20], 5256 µM; under setting [21], 4838 µM; under setting [22], 4465 µM; under setting [23], 3973 µM.
